Test results taken from patent US9359373B1, “Lipophilic N-substituted norcantharimide derivatives and uses thereof” (priority 2014, dated 2016).
Where two headings read alike, the source gives them in different places.

What was measured:
[1] = tested on: human lymphoblast cells (NHL); assay: Cell viability (CCK-8), normal lymphoblast cells; assay type: cell-based; conditions: 24 hours (NC15: 24 and 48 hours), FIG. 4, FIG. 6
Experimental: The cell viability assays were performed in 96-well plates. The 100 μl of cell suspensions (NHL or Jurkat T cells, 5×10^3 cells/well, serum-free medium) were inoculated in the wells and the plates were pre-incubated in the incubator for 24 hours (pre-incubated for 22 hours and stimulated with PMA 5 ng/ml plus ionomycin 250 ng/ml for 2 hours in PMAI-treated groups). Then, various concentrations of norcantharidin (0, 2, 4, 15, 30 and 60 μM) or NOC15 (0, 0.25, 0.5, 1, 2 and 4 μM) were added into the culture media in the wells. After 24 hours of incubation, the cell viability of NHL and Jurkat T cells was measured by cell counting kit-8 (CCK-8, Sigma). The half maximal inhibitory concentrations (IC50) of norcantharidin and NOC15 on Jurkat T cells and NHL cells were calculated.
In this example, a model of phorbol 12-myristate 13-acetate plus ionomycin (PMAI) activated leukemia Jurkat T cells model was employed to investigate the effects of the NOC15 on human leukemia cells (Jurkat T cells) and human lymphoblast cells (NHL).

[2] = Body weight of treated animals; assay type: in vivo, mice; conditions: 18 mg/Kg, compared with healthy normal control, FIG. 11
Experimental: To inoculate tumor, L1210 cells (1×10^6 cells per injection) were injected either subcutaneously or intraperitoneally to lab animals to generate tumors on day 1. After 7 days, NOC15 or NC15 (diluted in normal saline) was administered intra-peritoneally at a dose of 18 mg/kg every day for 7 days. The average body weight (BW) of the animals was measured daily.
Mice were inoculated with L1210 tumor cells in accordance with the procedures described in the section of “Materials and Methods.” For in vivo therapy, animals were given 18 mg/Kg NOC15 or NC15 by intra-peritoneal route, for a period of at least 7 days. Tumor size, animal body weight, respective weights of liver and spleen, as well as the white blood cell count of each animal were then measured respectively at the indicated time. Results are depicted in FIGS. 8 to 11, respectively.

SW480 = assay: MTT cell viability, SW480; assay type: cell-based, human; conditions: Homo sapiens, SW480, 48 hours, Mean ± SD, read-out: Growth Inhibition IC50 SW480
Experimental: (§1) Cell lines used in the present disclosure include human liver carcinonoma cell line HepG2, human bladder carcinoma cell line BFTC905, human colon carcinoma cell lines HT29 and SW480, and human leukemia cell lines HL60 and Jurkat T, and mouse lymphocytic leukemia cell line L1210. Each cell lines were cultured and maintained in Dulbecco's modified Eagle media (DMEM) or RPMI 1640 medium supplemented with 10% heat inactivated fetal bovine serum (FBS), 1% penicillin/streptomycin, in 5% CO2195% air at 37° C.
(§2) The absorbance of the solution at 540 nm was measured by spectrophotometer. The IC50 values were defined as the drug concentration that inhibit 50% cell growth by setting the viability of untreated cells as 100%. Values were represented as the mean±SD from at least 3 independent experiments.
(§3) Effects of the compounds of formula (I) of this disclosure, specifically, NOC15 and NC 15, on HepG2 cells (liver carcinoma), BFTC905 (bladder carcinoma), HT29 (colon carcinoma), SW480 (colon carcinoma) and HL60 (leukemia) were assessed by cell viability analysis in accordance with procedures described above, in which compound 2, and other known anti-cancer agents including 5-FU, cisplatin and doxorubicin were respectively used as positive controls.

HepG2 cells [3] = assay: MTT cell viability, HepG2; assay type: cell-based, human; conditions: Homo sapiens, Mean ± SD
Experimental: as §1, §2, §3
In this example, effects of NOC15 or NC15 on HepG2 cells were assessed by cell viability analysis in accordance with procedures described above, in which compound 2 was used as a positive control.

L1210 cells = assay: Ex vivo growth of leukemia cells (L1210); assay type: cell-based, mouse; conditions: read-out: concentration suppressing ex vivo growth of L1210 cells for about 50%
HepG2 cells [4] = assay: Apoptotic analysis annexin-V/PI flow cytometry; assay type: cell-based, human; conditions: 10-60 μM, 48 hours, FIG. 3
Experimental: The percentage of apototic cells was determined according to the manufacturer's protocol by using an annexin-V/FITC kit/propidium iodine (PI) flow cytometer. To facilitate the detection of apoptosis, the treated cells were centrifuged for 5 min at a speed of 1,000×g at room temperature, and then resuspended and washed once with 5 mL PBS before being stained with annexin-V/PI (apoptosis detection kit, R&D Systems, Taipei, Taiwan).
HepG2 cells were treated with 10-60 μM of the test compounds for 48 hours, then cell cycle distribution and apoptosis analysis was analyzed by flow cytometry, with the subG1 phase being stained with propidium idoine (PI). Results are illustrated in FIGS. 2 and 3.

HL60 = assay: MTT cell viability, HL60; assay type: cell-based, human
Experimental: as §1, §2, §3

SMILES: CC(C)=CCCC(C)=CCCC(C)=CCN1C(=O)C2C3CCC(O3)C2C1=O (stereo not drawn) [Compound 18, N-farnesyl-7-oxabicyclo[2.2.1]heptane-2,3-dicarboximide]
- cytotoxicity to normal lymphatic/lymphoblast cells (NHL) [1]: did not possess significant cytotoxicity
- total body weight along the course of treatment [2]: eventually brought the animal body weight to the level same as the control
- IC50 (SW480): 33.1 ± 1 µM
- IC50 (HepG2 cells [3]; HepG2, 24 h, read-out: Growth Inhibition On Hepatic Cancer Cells IC50 24 hrs): 19.4 ± 2.1 µM
- IC50 (HepG2 cells [3]; HepG2, 48 h, MTT, 48 hours, read-out: Growth Inhibition IC50 HepG2): 16.4 ± 1.2 µM
- IC50 (HepG2 cells [3]; HepG2, 48 h, read-out: Growth Inhibition On Hepatic Cancer Cells IC50 48 hrs): 16.4 ± 1.2 µM
- IC50 (HepG2 cells [3]; HepG2, 72 h, read-out: Growth Inhibition On Hepatic Cancer Cells IC50 72 hrs): 12.8 ± 2.5 µM
- IC50 (L1210 cells; L1210, time not given, listed as NC15): ~2.6 µM
- IC50 (L1210 cells; Mus musculus, L1210, L1210, time not given): ~1.6 µM
- percentage of apoptotic cells / cell death (HepG2 cells [4]): dose-dependent
- IC50 (HL60; Homo sapiens, HL-60, MTT, 48 hours, Mean ± SD, read-out: Growth Inhibition IC50 HL-60): 79.8 ± 1.1 µM
- response of leukemia cell line HL60 to treatment (HL60; in words, from Table 1): did respond
